In the CheMixHub viscosity set:
± gives the uncertainty stated by the source.

Test: xn = mol fraction of the nth substance listed

Compound: BrCCBr + C1CCCCC1
- viscosity (298.15 K, 101.33 kPa, x1 = 0.1283): 0.8597 ± 0.011 mPa·s
- viscosity (298.15 K, 101.33 kPa, x1 = 0.2453): 0.8556 ± 0.01 mPa·s
- viscosity (298.15 K, 101.33 kPa, x1 = 0.3514): 0.926 ± 0.011 mPa·s
- viscosity (298.15 K, 101.33 kPa, x1 = 0.4599): 0.9659 ± 0.012 mPa·s
- viscosity (298.15 K, 101.33 kPa, x1 = 0.5537): 1.009 ± 0.012 mPa·s
- viscosity (298.15 K, 101.33 kPa, x1 = 0.6465): 1.105 ± 0.013 mPa·s
- viscosity (298.15 K, 101.33 kPa, x1 = 0.7406): 1.208 ± 0.014 mPa·s
- viscosity (298.15 K, 101.33 kPa, x1 = 0.8327): 1.311 ± 0.015 mPa·s
- viscosity (298.15 K, 101.33 kPa, x1 = 0.91): 1.45 ± 0.017 mPa·s
- viscosity (308.15 K, 101.33 kPa, x1 = 0.1562): 0.7122 ± 0.0089 mPa·s
- viscosity (308.15 K, 101.33 kPa, x1 = 0.2398): 0.7673 ± 0.0095 mPa·s
- viscosity (308.15 K, 101.33 kPa, x1 = 0.3629): 0.8116 ± 0.0099 mPa·s
- viscosity (308.15 K, 101.33 kPa, x1 = 0.4545): 0.8447 ± 0.01 mPa·s
- viscosity (308.15 K, 101.33 kPa, x1 = 0.5559): 0.9064 ± 0.011 mPa·s
- viscosity (308.15 K, 101.33 kPa, x1 = 0.6741): 1.021 ± 0.012 mPa·s
- viscosity (308.15 K, 101.33 kPa, x1 = 0.7424): 1.055 ± 0.012 mPa·s
- viscosity (308.15 K, 101.33 kPa, x1 = 0.8334): 1.145 ± 0.013 mPa·s
- viscosity (308.15 K, 101.33 kPa, x1 = 0.9281): 1.286 ± 0.015 mPa·s

Compound: C1COCCO1 + C1CCCCC1
- viscosity (298.15 K, 101 kPa, x2 = 0.0864): 1.083 ± 0.011 mPa·s
- viscosity (298.15 K, 101 kPa, x2 = 0.2096): 0.992 ± 0.01 mPa·s
- viscosity (298.15 K, 101 kPa, x2 = 0.286): 0.943 ± 0.009 mPa·s
- viscosity (298.15 K, 101 kPa, x2 = 0.391): 0.887 ± 0.009 mPa·s
- viscosity (298.15 K, 101 kPa, x2 = 0.535): 0.848 ± 0.009 mPa·s
- viscosity (298.15 K, 101 kPa, x2 = 0.6125): 0.831 ± 0.008 mPa·s
- viscosity (298.15 K, 101 kPa, x2 = 0.685): 0.821 ± 0.008 mPa·s
- viscosity (298.15 K, 101 kPa, x2 = 0.773): 0.824 ± 0.008 mPa·s
- viscosity (298.15 K, 101 kPa, x2 = 0.8223): 0.828 ± 0.008 mPa·s
- viscosity (298.15 K, 101 kPa, x2 = 0.9303): 0.847 ± 0.009 mPa·s
- viscosity (303.15 K, 101 kPa, x1 = 0.1001): 0.793 ± 0.008 mPa·s
- viscosity (303.15 K, 101 kPa, x1 = 0.2073): 0.783 ± 0.008 mPa·s
- viscosity (303.15 K, 101 kPa, x1 = 0.3007): 0.785 ± 0.008 mPa·s
- viscosity (303.15 K, 101 kPa, x1 = 0.4018): 0.787 ± 0.008 mPa·s
- viscosity (303.15 K, 101 kPa, x1 = 0.5018): 0.815 ± 0.008 mPa·s
- viscosity (303.15 K, 101 kPa, x1 = 0.5983): 0.841 ± 0.008 mPa·s
- viscosity (303.15 K, 101 kPa, x1 = 0.6997): 0.882 ± 0.009 mPa·s
- viscosity (303.15 K, 101 kPa, x1 = 0.7992): 0.934 ± 0.009 mPa·s
- viscosity (303.15 K, 101 kPa, x1 = 0.8901): 1 ± 0.01 mPa·s
- viscosity (303.15 K, 101 kPa, x2 = 0.0864): 1.009 ± 0.01 mPa·s
- viscosity (303.15 K, 101 kPa, x2 = 0.2096): 0.917 ± 0.009 mPa·s
- viscosity (303.15 K, 101 kPa, x2 = 0.286): 0.876 ± 0.009 mPa·s
- viscosity (303.15 K, 101 kPa, x2 = 0.391): 0.82 ± 0.008 mPa·s
- viscosity (303.15 K, 101 kPa, x2 = 0.535): 0.785 ± 0.008 mPa·s
- viscosity (303.15 K, 101 kPa, x2 = 0.6125): 0.772 ± 0.008 mPa·s
- viscosity (303.15 K, 101 kPa, x2 = 0.685): 0.766 ± 0.008 mPa·s
- viscosity (303.15 K, 101 kPa, x2 = 0.773): 0.763 ± 0.008 mPa·s
- viscosity (303.15 K, 101 kPa, x2 = 0.8223): 0.768 ± 0.008 mPa·s
- viscosity (303.15 K, 101 kPa, x2 = 0.9303): 0.781 ± 0.008 mPa·s
- viscosity (308.15 K, 101 kPa, x2 = 0.0864): 0.936 ± 0.009 mPa·s
- viscosity (308.15 K, 101 kPa, x2 = 0.2096): 0.851 ± 0.009 mPa·s
- viscosity (308.15 K, 101 kPa, x2 = 0.286): 0.813 ± 0.008 mPa·s
- viscosity (308.15 K, 101 kPa, x2 = 0.391): 0.763 ± 0.008 mPa·s
- viscosity (308.15 K, 101 kPa, x2 = 0.535): 0.73 ± 0.007 mPa·s
- viscosity (308.15 K, 101 kPa, x2 = 0.6125): 0.715 ± 0.007 mPa·s
- viscosity (308.15 K, 101 kPa, x2 = 0.685): 0.711 ± 0.007 mPa·s
- viscosity (308.15 K, 101 kPa, x2 = 0.773): 0.708 ± 0.007 mPa·s
- viscosity (308.15 K, 101 kPa, x2 = 0.8223): 0.714 ± 0.007 mPa·s
- viscosity (308.15 K, 101 kPa, x2 = 0.9303): 0.724 ± 0.007 mPa·s
- viscosity (313.15 K, 101 kPa, x2 = 0.0864): 0.869 ± 0.009 mPa·s
- viscosity (313.15 K, 101 kPa, x2 = 0.2096): 0.792 ± 0.008 mPa·s
- viscosity (313.15 K, 101 kPa, x2 = 0.286): 0.756 ± 0.008 mPa·s
- viscosity (313.15 K, 101 kPa, x2 = 0.391): 0.709 ± 0.007 mPa·s
- viscosity (313.15 K, 101 kPa, x2 = 0.535): 0.676 ± 0.007 mPa·s
- viscosity (313.15 K, 101 kPa, x2 = 0.6125): 0.665 ± 0.007 mPa·s
- viscosity (313.15 K, 101 kPa, x2 = 0.685): 0.66 ± 0.007 mPa·s
- viscosity (313.15 K, 101 kPa, x2 = 0.773): 0.66 ± 0.007 mPa·s
- viscosity (313.15 K, 101 kPa, x2 = 0.8223): 0.663 ± 0.007 mPa·s
- viscosity (313.15 K, 101 kPa, x2 = 0.9303): 0.673 ± 0.007 mPa·s
- viscosity (318.15 K, 101 kPa, x2 = 0.0864): 0.808 ± 0.008 mPa·s
- viscosity (318.15 K, 101 kPa, x2 = 0.2096): 0.738 ± 0.007 mPa·s
- viscosity (318.15 K, 101 kPa, x2 = 0.286): 0.702 ± 0.007 mPa·s
- viscosity (318.15 K, 101 kPa, x2 = 0.391): 0.661 ± 0.007 mPa·s
- viscosity (318.15 K, 101 kPa, x2 = 0.535): 0.632 ± 0.007 mPa·s
- viscosity (318.15 K, 101 kPa, x2 = 0.6125): 0.621 ± 0.006 mPa·s
- viscosity (318.15 K, 101 kPa, x2 = 0.685): 0.617 ± 0.006 mPa·s
- viscosity (318.15 K, 101 kPa, x2 = 0.773): 0.614 ± 0.006 mPa·s
- viscosity (318.15 K, 101 kPa, x2 = 0.8223): 0.617 ± 0.006 mPa·s
- viscosity (318.15 K, 101 kPa, x2 = 0.9303): 0.627 ± 0.006 mPa·s

Compound: Brc1ccccc1 + C1CCOC1
- viscosity (298.15 K, 101 kPa, x2 = 0.1051): 1.014 ± 0.0082 mPa·s
- viscosity (298.15 K, 101 kPa, x2 = 0.2012): 0.9619 ± 0.0078 mPa·s
- viscosity (298.15 K, 101 kPa, x2 = 0.3022): 0.9067 ± 0.0074 mPa·s
- viscosity (298.15 K, 101 kPa, x2 = 0.4031): 0.8488 ± 0.007 mPa·s
- viscosity (298.15 K, 101 kPa, x2 = 0.4987): 0.7916 ± 0.0066 mPa·s
- viscosity (313.15 K, 101 kPa, x2 = 0.1051): 0.8409 ± 0.007 mPa·s
- viscosity (313.15 K, 101 kPa, x2 = 0.2012): 0.8 ± 0.0067 mPa·s
- viscosity (313.15 K, 101 kPa, x2 = 0.3022): 0.7551 ± 0.0064 mPa·s
- viscosity (313.15 K, 101 kPa, x2 = 0.4031): 0.7079 ± 0.006 mPa·s
- viscosity (313.15 K, 101 kPa, x2 = 0.4987): 0.6622 ± 0.0057 mPa·s
